In ChEMBL document CHEMBL4184199, “Structural optimization of N1-aryl-benzimidazoles for the discovery of new non-nucleoside reverse transcriptase inhibitors active against wild-type and mutant HIV-1 strains” (Bioorg Med Chem, 2018):
Activity calls are given as the source filed them. The rule behind the calls is not given here.

Tests used:
[1] = molecular target: Human immunodeficiency virus type 1 reverse transcriptase (Human immunodeficiency virus 1, UniProt Q72547); test: Inhibition of recombinant wild-type HIV-1 3B reverse transcriptase p66/p51 RNA-dependent DNA polymerase activity expressed in Escherichia coli JM109 assessed as reduction in dTTP incorporation using poly(rA)/oligo(dT)16 as template/primer after 40 mins by PicoGreen dye based spectrofluorometric analysis
[2] = tested on: Human immunodeficiency virus 1; test: Antiviral activity against HIV1 3B infected in human MT4 cells assessed as reduction in virus-induced cytopathic effect after 5 days by MTT assay; type: functional, organism-based; conditions: Human immunodeficiency virus 1, 3B, MT4, 120 h
[3] = Cytotoxicity against human MT4 cells after 5 days by MTT assay; type: cell-based
[4] = Selectivity index, ratio of CC50 for human MT4 cells to EC50 for HIV1 3B expressing wild type reverse transcriptase; type: toxicity; conditions: read-out: Ratio CC50/EC50
[5] = tested on: Human immunodeficiency virus 2; test: Antiviral activity against HIV2 ROD infected in human MT4 cells assessed as reduction in virus-induced cytopathic effect after 5 days by MTT assay; type: functional, organism-based; conditions: ISOLATE ROD

Row | IC50 [1] [µM] | Compound | EC50 [2] [µM] | CC50 at 120 h [3] [µM] | selectivity ratio [4] | Activity [5]
1 | 0.13 | Cc1cc(C)cc(S(=O)(=O)n2c(SCC(=O)Nc3ccc(C(=O)O)cc3)nc3ccccc32)c1 | 0.2 | 115 | 577 | inactive
2 | – | Cc1cc(C)cc(S(=O)(=O)n2c(SCC(=O)Nc3ccccc3Cl)nc3ccccc32)c1 | 0.88 | – | – | inactive
3 | 0.222 | Cc1cc(C)cc(S(=O)(=O)n2c(SCC(=O)Nc3ccccc3C)nc3ccccc32)c1 | 0.235 | 6.15 | 27 | inactive
4 | 15.7 | Cc1cc(C)cc(S(=O)(=O)n2c(OCC(=O)Nc3ccccc3Br)nc3ccccc32)c1 | 1.55 | > 243 | > 157 | inactive
5 | 5.45 | COC(=O)c1ccc(NC(=O)COc2nc3ccccc3n2S(=O)(=O)c2cc(C)cc(C)c2)c(Cl)c1 | 0.79 | 119 | 151 | inactive
6 | – | Cc1cc(C)cc(S(=O)(=O)n2c(SCC(=O)Nc3ccc(S(C)(=O)=O)cc3Cl)nc3ccccc32)c1 | – | ≥ 222 | 5540 | –
7 | 21.3 | Cc1cc(C)cc(S(=O)(=O)n2c(SCC(=O)Nc3ccccc3C(=O)O)nc3ccccc32)c1 | 6.83 | 25.2 | 4 | inactive
8 | 0.76 | Cc1cc(C)cc(S(=O)(=O)n2c(OCC(=O)Nc3ccc(S(C)(=O)=O)cc3Cl)nc3ccccc32)c1 | 0.12 | > 228 | > 1890 | inactive
9 | 0.088 | COC(=O)c1ccc(NC(=O)CSc2nc3ccccc3n2S(=O)(=O)c2cc(C)cc(C)c2)cc1 | 0.051 | 10 | 196 | inactive
10 | 0.091 | Cc1ccc(NC(=O)CSc2nc3ccccc3n2S(=O)(=O)c2cc(C)cc(C)c2)cc1 | 0.094 | 2.97 | 31 | inactive
11 | 60.6 | Cc1cc(C)cc(S(=O)(=O)n2c(SCC(=O)Nc3ccccc3S(C)(=O)=O)nc3ccccc32)c1 | ≥ 9.44 | 9.31 | < 1 | inactive
12 | – | O=C1Nc2ccc(Cl)cc2[C@@](C#CC2CC2)(C(F)(F)F)O1 [EFAVIRENZ] | – | > 6.33 | – | –
13 | – | Cc1cc(C)cc(S(=O)(=O)n2c(SCC(=O)Nc3ccc(S(N)(=O)=O)cc3Cl)nc3ccccc32)c1 | – | – | – | inactive
14 | 5.84 | Cc1cc(C)cc(S(=O)(=O)n2c(OCC(=O)Nc3ccc(S(N)(=O)=O)cc3Cl)nc3ccccc32)c1 | 0.25 | > 227 | > 908 | inactive
15 | – | Cc1cc(C)cc(S(=O)(=O)n2c(SCC(=O)Nc3ccccc3Br)nc3ccccc32)c1 | – | ≥ 236 | > 3930 | inactive
16 | – | COC(=O)c1ccc(NC(=O)CSc2nc3ccccc3n2S(=O)(=O)c2cc(C)cc(C)c2)c(Cl)c1 | – | 145 | – | inactive
17 | 15.7 | COC(=O)c1ccccc1NC(=O)CSc1nc2ccccc2n1S(=O)(=O)c1cc(C)cc(C)c1 | ≥ 1.06 | 5.22 | < 5 | inactive
18 | – | Cc1ccnc2c1NC(=O)c1cccnc1N2C1CC1 [NEVIRAPINE] | – | > 15 | – | –
19 | 0.047 | Cc1cc(C)cc(S(=O)(=O)n2c(SCC(=O)Nc3ccc(S(C)(=O)=O)cc3)nc3ccccc32)c1 | 0.028 | 10.6 | 385 | inactive
20 | 47.3 | Cc1cc(C)cc(S(=O)(=O)n2c(OCC(=O)Nc3ccccc3Cl)nc3ccccc32)c1 | 1.09 | 169 | 155 | inactive
21 | 7.68 | Cc1cc(C)cc(S(=O)(=O)n2c(SCC(=O)Nc3ccccc3S(N)(=O)=O)nc3ccccc32)c1 | 2.72 | 25 | 9 | inactive
22 | 0.05 | Cc1cc(C)cc(S(=O)(=O)n2c(SCC(=O)Nc3ccc(S(N)(=O)=O)cc3)nc3ccccc32)c1 | 0.024 | 30.9 | 1290 | inactive
